Measured values as given in ChEMBL document CHEMBL1201862, “PubChem BioAssay data set” (2004).
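These data come from cells grown in 96-well plates and exposed to compound for 48 hours at five concentrations. The concentration for 50% growth inhibition is given as GI50.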 Active and inactive are the calls of the source. Rule as the data show it: active = GI50 up to about 1.1 µM and inactive = higher. Square brackets hold non-standard residues; d marks the D form. Peptide text beside a SMILES is read from it. ξ: configuration not given here. ξ2Thi = NC(Cc1cccs1)C(=O)O; ξR = N=C(N)NCCCC(N)C(=O)O; ξI = CCC(C)C(N)C(=O)O; ξL = CC(C)CC(N)C(=O)O; ξK = NCCCCC(N)C(=O)O; ξT = CC(O)C(N)C(=O)O; ξA = CC(N)C(=O)O

Legend:
Test in all cases: DTP human tumour cell line panel, 48 h
[1] = test system: 786-0
[2] = test system: ACHN
[3] = test system: BT-549
[4] = test system: COLO 205
[5] = test system: EKVX
[6] = test system: Hs-578T
[7] = test system: IGROV-1
[8] = test system: KM12
[9] = test system: Malme-3M
[10] = test system: NCI-H23
[11] = test system: OVCAR-4
[12] = test system: OVCAR-8
[13] = test system: PC-3
[14] = test system: RXF 393
[15] = test system: SF-268
[16] = test system: SN12C
[17] = test system: T47D
[18] = test system: UO-31
[19] = test system: UACC-62

For `CC1(C)CC(=O)c2c(nc(SSc3nc4c(c(-c5ccc(Br)cc5)c3C#N)C(=O)CC(C)(C)C4)c(C#N)c2-c2ccc(Br)cc2)C1`, the GI50 [1] was > 10 µM (inactive), the GI50 [2] was > 10 µM (inactive) and the GI50 [3] was > 10 µM (inactive). The GI50 [4] was > 10 µM (inactive), the GI50 [5] was > 10 µM (inactive) and the GI50 [6] was > 10 µM (inactive). The GI50 [7] was > 10 µM (inactive), the GI50 [8] was > 10 µM (inactive) and the GI50 [9] was > 10 µM (inactive). For the same molecule, the GI50 [10] was > 10 µM (inactive), the GI50 [11] was > 10 µM (inactive) and the GI50 [12] was > 10 µM (inactive). The GI50 [13] was > 10 µM (inactive), the GI50 [14] was > 10 µM (inactive) and the GI50 [15] was > 10 µM (inactive). For the same molecule, the GI50 [16] was > 10 µM (inactive), the GI50 [17] was > 10 µM (inactive) and the GI50 [18] was > 10 µM (inactive).
With `CCC(C)C(NC(=O)C(Cc1cccs1)NC(=O)C(CC(C)C)NC(=O)C(CC(C)C)NC(=O)C(CCCCN)NC(=O)C(CCCN=C(N)N)NC(=O)[C@H](Cc1ccc(O)cc1)NC(=O)C(NC(=O)C(C)NC(=O)C(N)CC(C)C)C(C)O)C(=O)NC(CC(C)C)C(N)=O` (some centres not stated) (H-[ξL][ξA][ξT]Y[ξR][ξK][ξL][ξL][ξ2Thi][ξI][ξL]-NH2) the GI50 [1] was > 50 µM (inactive), the GI50 [2] was > 50 µM (inactive) and the GI50 [3] was > 50 µM (inactive). For the same molecule, the GI50 [4] was > 50 µM (inactive), the GI50 [5] was > 50 µM (inactive) and the GI50 [6] was > 50 µM (inactive). The GI50 [8] was > 50 µM (inactive), the GI50 [9] was > 50 µM (inactive) and the GI50 [10] was > 50 µM (inactive). The GI50 [11] was > 50 µM (inactive), the GI50 [12] was > 50 µM (inactive) and the GI50 [13] was > 50 µM (inactive). The GI50 [14] was > 50 µM (inactive), the GI50 [15] was > 50 µM (inactive) and the GI50 [16] was > 50 µM (inactive). The GI50 [17] was > 50 µM (inactive), the GI50 [19] was > 50 µM (inactive) and the GI50 [18] was > 50 µM (inactive).
In the case of `CCOC(=O)c1nnsc1NC(=O)NN`, the GI50 [1] is reported as 89.3 µM (inactive), the GI50 [2] is reported as > 100 µM (inactive) and the GI50 [3] is reported as > 100 µM (inactive). For the same molecule, the GI50 [4] was > 100 µM (inactive), the GI50 [5] was > 100 µM (inactive) and the GI50 [6] was > 100 µM (inactive). For the same molecule, the GI50 [7] was > 100 µM (inactive), the GI50 [8] was > 100 µM (inactive) and the GI50 [9] was > 100 µM (inactive). The GI50 [10] was > 100 µM (inactive), the GI50 [12] was > 100 µM (inactive) and the GI50 [13] was > 100 µM (inactive). The GI50 [14] was > 100 µM (inactive), the GI50 [15] was > 100 µM (inactive) and the GI50 [16] was > 100 µM (inactive). For the same molecule, the GI50 [17] was > 100 µM (inactive), the GI50 [19] was > 100 µM (inactive) and the GI50 [18] was > 100 µM (inactive).
In the case of `COc1ccc2c(c1)-c1c(c3cc(OC)ccc3n1CCN1CCOCC1)CC2`, the GI50 [1] is reported as 20.2 µM (inactive), the GI50 [2] is reported as 29.4 µM (inactive) and the GI50 [3] is reported as 28.4 µM (inactive). The GI50 [4] was 20 µM (inactive), the GI50 [6] was 16.6 µM (inactive) and the GI50 [7] was 18.1 µM (inactive). The GI50 [8] was 22.6 µM (inactive), the GI50 [9] was 28.2 µM (inactive) and the GI50 [10] was 52.1 µM (inactive). For the same molecule, the GI50 [11] was 54 µM (inactive), the GI50 [12] was 28.6 µM (inactive) and the GI50 [13] was 24.2 µM (inactive). The GI50 [14] was 27.1 µM (inactive), the GI50 [15] was 55 µM (inactive) and the GI50 [16] was 62.2 µM (inactive). For the same molecule, the GI50 [17] was 44.4 µM (inactive), the GI50 [19] was 16.8 µM (inactive) and the GI50 [18] was 24.5 µM (inactive).
For `COc1c2ccoc2nc2c(OC)c(OCC(O)C(C)(C)O)ccc12` (configuration not stated) [EVOXINE], the GI50 [1] was > 100 µM (inactive), the GI50 [2] was > 100 µM (inactive) and the GI50 [3] was > 100 µM (inactive). For the same molecule, the GI50 [4] was > 100 µM (inactive), the GI50 [5] was > 100 µM (inactive) and the GI50 [6] was > 100 µM (inactive). For the same molecule, the GI50 [7] was 70 µM (inactive), the GI50 [8] was > 100 µM (inactive) and the GI50 [9] was > 100 µM (inactive). The GI50 [10] was > 100 µM (inactive), the GI50 [11] was > 100 µM (inactive) and the GI50 [12] was > 100 µM (inactive). The GI50 [13] was > 100 µM (inactive), the GI50 [15] was > 100 µM (inactive) and the GI50 [16] was > 100 µM (inactive). The GI50 [17] was > 100 µM (inactive), the GI50 [19] was > 100 µM (inactive) and the GI50 [18] was > 100 µM (inactive).
For `CCOC(=O)c1c(N)sc2c1C(C(=O)OCC)CCCC2` (configuration not stated), the GI50 [1] was > 100 µM (inactive), the GI50 [2] was 83.6 µM (inactive) and the GI50 [3] was > 100 µM (inactive). The GI50 [4] was 85.7 µM (inactive), the GI50 [5] was 85.3 µM (inactive) and the GI50 [6] was 43.9 µM (inactive). The GI50 [7] was > 100 µM (inactive), the GI50 [8] was > 100 µM (inactive) and the GI50 [9] was > 100 µM (inactive). The GI50 [10] was 62.1 µM (inactive), the GI50 [12] was 89.3 µM (inactive) and the GI50 [13] was 32.9 µM (inactive). The GI50 [14] was 17.3 µM (inactive), the GI50 [16] was 91 µM (inactive) and the GI50 [17] was 22.5 µM (inactive). For the same molecule, the GI50 [19] was 78.3 µM (inactive) and the GI50 [18] was 37.6 µM (inactive).
`NC(=O)NC(=O)c1cccc(NC(=O)CBr)c1` was tested, and the GI50 [1] was < 0.01 µM (active), the GI50 [2] was < 0.0209 µM (active) and the GI50 [3] was < 0.02 µM (active). For the same molecule, the GI50 [4] was < 0.01 µM (active), the GI50 [5] was 0.766 µM (active) and the GI50 [6] was < 0.0206 µM (active). For the same molecule, the GI50 [7] was 0.0266 µM (active), the GI50 [8] was 0.0216 µM (active) and the GI50 [10] was < 0.0195 µM (active). For the same molecule, the GI50 [11] was 0.0706 µM (active), the GI50 [12] was < 0.0172 µM (active) and the GI50 [13] was < 0.0182 µM (active). For the same molecule, the GI50 [14] was < 0.019 µM (active), the GI50 [15] was < 0.0158 µM (active) and the GI50 [16] was < 0.0206 µM (active). The GI50 [17] was 1.42 µM (inactive), the GI50 [19] was < 0.0175 µM (active) and the GI50 [18] was 0.209 µM (active).
`Cc1cc(C)nc(NS(=O)(=O)c2ccc(Nc3c4ccccc4nc4c(C(=O)NCCCN(CCO)CCO)cccc34)cc2)n1` was tested, and the GI50 [1] was > 10 µM (inactive), the GI50 [2] was 22.9 µM (inactive) and the GI50 [3] was 11.6 µM (inactive). For the same molecule, the GI50 [4] was 14 µM (inactive), the GI50 [5] was 36.6 µM (inactive) and the GI50 [6] was 6.67 µM (inactive). The GI50 [7] was 15.5 µM (inactive), the GI50 [8] was 12.6 µM (inactive) and the GI50 [9] was 15.4 µM (inactive). The GI50 [10] was 29.4 µM (inactive), the GI50 [11] was 16.9 µM (inactive) and the GI50 [12] was 17.3 µM (inactive). The GI50 [13] was 14.9 µM (inactive), the GI50 [15] was 16.9 µM (inactive) and the GI50 [16] was 8.22 µM (inactive). The GI50 [17] was 22.5 µM (inactive), the GI50 [19] was 14 µM (inactive) and the GI50 [18] was 42 µM (inactive).
In the case of `N#Cc1ccc(-c2nc3cc(Cl)ccc3[nH]2)cc1`, the GI50 [1] is reported as > 100 µM (inactive), the GI50 [3] is reported as 68.2 µM (inactive) and the GI50 [4] is reported as 74.8 µM (inactive). For the same molecule, the GI50 [5] was 23.1 µM (inactive), the GI50 [6] was > 100 µM (inactive) and the GI50 [7] was > 100 µM (inactive). The GI50 [8] was 25.3 µM (inactive), the GI50 [12] was 42.8 µM (inactive) and the GI50 [13] was 40.2 µM (inactive). The GI50 [14] was > 100 µM (inactive), the GI50 [16] was 51.1 µM (inactive) and the GI50 [17] was 35.6 µM (inactive). For the same molecule, the GI50 [18] was 27.6 µM (inactive).
For `C/C(C=O)=N\Nc1cc(C)c2ccccc2n1`, the GI50 [1] was 14.2 µM (inactive), the GI50 [2] was 16.3 µM (inactive) and the GI50 [3] was 12.8 µM (inactive). For the same molecule, the GI50 [4] was 16.4 µM (inactive), the GI50 [5] was 16.9 µM (inactive) and the GI50 [6] was 17.3 µM (inactive). The GI50 [7] was 16.9 µM (inactive), the GI50 [8] was 15 µM (inactive) and the GI50 [10] was 12.4 µM (inactive). The GI50 [11] was 12.8 µM (inactive), the GI50 [12] was 17.5 µM (inactive) and the GI50 [13] was 13.7 µM (inactive). For the same molecule, the GI50 [14] was 17.5 µM (inactive), the GI50 [15] was 16.9 µM (inactive) and the GI50 [16] was 16.3 µM (inactive). The GI50 [17] was 15.8 µM (inactive), the GI50 [19] was 14.7 µM (inactive) and the GI50 [18] was 14.9 µM (inactive).
`O=c1c(NCc2ccccc2)c(C2(c3ccccc3F)SCCCS2)c1=O` was tested, and the GI50 [1] was > 100 µM (inactive), the GI50 [2] was > 100 µM (inactive) and the GI50 [3] was > 100 µM (inactive). The GI50 [4] was > 100 µM (inactive), the GI50 [5] was > 100 µM (inactive) and the GI50 [6] was > 100 µM (inactive). For the same molecule, the GI50 [7] was > 100 µM (inactive), the GI50 [8] was 46.1 µM (inactive) and the GI50 [10] was > 100 µM (inactive). For the same molecule, the GI50 [11] was > 100 µM (inactive), the GI50 [12] was > 100 µM (inactive) and the GI50 [13] was > 100 µM (inactive). The GI50 [14] was > 100 µM (inactive), the GI50 [15] was > 100 µM (inactive) and the GI50 [16] was > 100 µM (inactive). For the same molecule, the GI50 [17] was > 100 µM (inactive), the GI50 [19] was 79.1 µM (inactive) and the GI50 [18] was > 100 µM (inactive).
